Active and inactive are the calls of the source. No cut-off for these calls is given here.

One test relates to MC-38. In words: In vivo activation of STING in naive […] mouse implanted with mouse MC38 cells assessed as increase in IFN-gamma level in plasma at 30 mg/kg, po administered as single dose and measured after 4 hrs by ELISA. Type of test: functional, organism-based. In general terms: ELISA stands for enzyme-linked immunosorbent assay.
For test [1], the target named is T1, Stimulator of interferon genes protein (Homo sapiens, UniProt Q86WV6). Nature of the test: Binding affinity to recombinant human STING H232 variant expressed in Escherichia coli BL21 (DE3) assessed as dissociation constant by single cycle SPR analysis. (SPR reads the build-up and loss of mass on a sensor chip optically.)
Target sequence in this assay (Q86WV6 whole entry, looked up, change not shown): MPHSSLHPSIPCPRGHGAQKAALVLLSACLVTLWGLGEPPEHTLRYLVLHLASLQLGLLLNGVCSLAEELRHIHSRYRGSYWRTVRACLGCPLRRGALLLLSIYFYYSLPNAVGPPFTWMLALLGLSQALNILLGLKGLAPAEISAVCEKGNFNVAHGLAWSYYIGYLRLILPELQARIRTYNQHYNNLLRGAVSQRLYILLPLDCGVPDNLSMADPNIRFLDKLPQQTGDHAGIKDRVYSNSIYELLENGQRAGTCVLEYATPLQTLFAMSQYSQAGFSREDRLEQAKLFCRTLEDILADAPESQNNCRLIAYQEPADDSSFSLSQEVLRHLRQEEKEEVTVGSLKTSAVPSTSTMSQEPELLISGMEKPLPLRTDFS
Test [2] has as its target T1, Stimulator of interferon genes protein. In words: Agonist activity at STING in human THP-1 cells assessed as increase in IFNbeta mRNA expression at 10 uM measured after 3 hrs by qRT-PCR analysis. Type of test: cell-based. As to conditions: filed as agonist.
Target sequence in this assay (Q86WV6 whole entry): as the sequence (Q86WV6 whole entry, looked up, change not shown) above

On to `CC[C@H](CC(=O)c1cc2cc(OC)c(OC)cc2[se]1)C(=O)O`, for which the outcome (in the test on MC-38; in test [2]) was Active. In addition, the Kd in test [1] was 23 µM.

The Kd is the equilibrium constant for the complex coming apart.
